From patent publication US10703764B2, “Benzopiperazine compositions as BET bromodomain inhibitors” (FORMA Therapeutics, Inc., priority 2013, dated 2020)

Experiments:
MV4-11 cells = assay: Oncology cell growth assay (3-day proliferation, CellTiter-Glo); assay type: cell-based; conditions: Homo sapiens, MV4-11, 72 h, AML cell line MV4-11, 72 hours, compounds grouped by IC50 range, read-out: MV4-11 IC50 (inhibition of proliferation, gIC50)
In short: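 Luminescence from CellTiter-Glo served as the growth read-out after MV4-11 cells (3000/well) were cultured with compound for 72 hours. Final concentrations spanned 10 to 0.0045 μM in 3-fold steps. gIC50 values were derived by four-parameter logistic fitting relative to DMSO and cell-free controls.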

BRD4 BD2 = molecular target: T1, BRD4 BD2 (Homo sapiens, UniProt O60885); assay: AlphaScreen binding assay, BRD4 Bromodomain 2
T1 construct: made in house
In short: (§1)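 An AlphaScreen competition format was used with His-BRD4 BD1 or BD2 and biotin-H4 K5/8/12/16-acetyl peptide, each at matched final levels of 50 nM (BD1) or 100 nM (BD2). Incubation in HEPES/NaCl buffer with 0.1% BSA and 0.01% Triton X-100 ran ≥1 h before IC50 determination.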

BRD4 BD1 = molecular target: T2, BRD4 BD1 (Homo sapiens, UniProt O60885); assay: AlphaScreen binding assay, BRD4 Bromodomain 1
T2 construct: made in house
In short: as §1

Compound | IC50 (MV4-11 cells) | IC50 (BRD4 BD2) | IC50 (BRD4 BD1)
CC(=O)N1c2ccc(-c3ccc(S(=O)(=O)CCN)cc3)cc2N(C(=O)C2CC2)C[C@@H]1C [Example I-447] | > 500 nM | 50 to 500 nM | 1000 to 10000 nM
COC(=O)N1c2ccc(-c3cnn(C4CC4)c3)cc2N(C(=O)OCC2CC2)C[C@@H]1C [Example I-996] | > 500 nM | > 500 nM | 100 to 1000 nM
CC(=O)N1c2ccc(-c3cnc(N)cn3)cc2N(C(=O)c2ccco2)C[C@@H]1C [Example I-413] | 100 to 500 nM | < 50 nM | 1000 to 10000 nM
CC(=O)N1c2ccc(-c3ccc(S(=O)(=O)CC(C)C)cc3)cc2N(C(=O)C2CC2)C[C@@H]1C [Example I-1078] | 100 to 500 nM | 50 to 500 nM | 1000 to 10000 nM
CC(=O)N1c2ccc(-c3cccc(NS(=O)(=O)N(C)C)c3)cc2N(C(=O)OC2CCOCC2)C[C@@H]1C [Example I-1274] | 100 to 500 nM | 50 to 500 nM | 100 to 1000 nM
CC(C)OC(=O)N1C[C@H](C)N(C(=O)C2CC2)c2ccc(-c3ccc(N4CCS(=O)(=O)CC4)cc3)cc21 [Example I-468] | 100 to 500 nM | 50 to 500 nM | 100 to 1000 nM
CCOC(=O)N1C[C@H](C)N(C(=O)C2CC2)c2ccc(-c3cnn(C4CC4)c3)cc21 [Example I-379] | 100 to 500 nM | 50 to 500 nM | 100 to 1000 nM
CC(=O)N1c2ccc(-c3cnn(C4CC4)c3)cc2N(C(=O)Oc2ccc(Cl)cc2)C[C@@H]1C [Example I-260] | 100 to 500 nM | < 50 nM | < 100 nM
CC(=O)N1c2ccc(-c3ccc(OCCN(C)C)cc3)cc2N(C(=O)c2ccco2)C[C@@H]1C [Example I-276] | < 100 nM | < 50 nM | 1000 to 10000 nM
CC(=O)N1c2ccc(-c3ccc(N4CCCS4(=O)=O)cc3)cc2N(C(=O)Oc2ccc(F)cc2)C[C@@H]1C [Example I-1021] | < 100 nM | 50 to 500 nM | 100 to 1000 nM
COC(=O)N1c2ccc(-c3cnn(Cc4ccncc4)c3)cc2N(C(=O)OC(C)C)C[C@@H]1C [Example I-640] | > 500 nM | 50 to 500 nM | 100 to 1000 nM
CC(=O)N1c2ccc(-c3cnn(C4CCC4)c3)cc2N(C(=O)OC(C)C)C[C@@H]1C [Example I-24, (S)-isopropyl 4-acetyl-7-(1-cyclobutyl-1H-pyrazol-4-yl)-3-methyl-3,4-dihydroquinoxaline-1(2H)-carboxylate] | 100 to 500 nM | 50 to 500 nM | < 100 nM
COc1ccc(-c2ccc3c(c2)N(C(=O)OC(C)C)C[C@H](C)N3C(C)=O)cc1NS(C)(=O)=O [Example I-1142] | 100 to 500 nM | 50 to 500 nM | 100 to 1000 nM
CC(=O)N1c2ccc(-c3cnn(C4CCCS(=O)(=O)C4)c3)cc2N(C(=O)OC(C)C)C[C@@H]1C (stereo partly drawn) [Example I-1311] | 100 to 500 nM | 50 to 500 nM | 100 to 1000 nM
CC(=O)N1c2ccc(-c3ccc4c(c3)CCN4S(C)(=O)=O)cc2N(C(=O)OC(C)C)C[C@@H]1C [Example I-348] | 100 to 500 nM | < 50 nM | 100 to 1000 nM
CC(=O)Nc1cc2c(cc1-c1ccc(S(C)(=O)=O)cc1)N(C(=O)OC(C)C)C[C@H](C)N2C(C)=O [Example I-197, Isopropyl (S)-6-acetamido-4-acetyl-3-methyl-7-(4-(methylsulfonyl)phenyl)-3,4-dihydroquinoxaline-1(2H)-carboxylate] | > 500 nM | > 500 nM | 1000 to 10000 nM
CC(=O)N1c2ccc(-c3ccc(OCCS(C)(=O)=O)cc3)cc2N(C(=O)OC2CCCCC2)C[C@@H]1C [Example I-1251] | 100 to 500 nM | 50 to 500 nM | 100 to 1000 nM
CC(=O)N1c2ccc(-c3ccc(S(C)(=O)=O)cc3)cc2N(C(=O)c2cc3cc(O)ccc3[nH]2)CC1C (stereo not drawn) [Example I-786] | > 500 nM | 50 to 500 nM | 1000 to 10000 nM
CC(=O)N1c2ccc(-c3cnn(C4CNC4)c3)cc2N(C(=O)OC2CCCCC2)C[C@@H]1C [Example I-1304] | < 100 nM | < 50 nM | < 100 nM
CC(=O)N1c2ccc(-c3cc(Cl)cc(S(C)(=O)=O)c3)cc2N(C(=O)C2CC2)C[C@@H]1C [Example I-1094] | > 500 nM | > 500 nM | 1000 to 10000 nM
CC(=O)N[C@@H]1CCN(C(=O)c2ccc(-c3ccc4c(c3)N(C(=O)OC(C)C)C[C@H](C)N4C(C)=O)cc2)C1 [Example I-540] | < 100 nM | < 50 nM | < 100 nM
CC(=O)N1c2ccc(-c3cnn(CC4CCC4)c3)cc2N(C(=O)OC(C)C)C[C@@H]1C [Example I-603] | 100 to 500 nM | 50 to 500 nM | 100 to 1000 nM
